Details: 101.33 kPa, Liquid, transient hot wire

CCCCCC(=O)OCC [ethyl hexanoate]
Details	thermal conductivity [W/m/K]
254.29 K	0.1474
264.08 K	0.1447
274.02 K	0.1429
283.95 K	0.1398
293.74 K	0.1375
303.7 K	0.1353
313.76 K	0.1323
323.67 K	0.13
333.63 K	0.1268
343.56 K	0.1242
353.55 K	0.1216
363.41 K	0.1191
373.4 K	0.1172
383.37 K	0.1153

CCO [ethanol]
Details	thermal conductivity [W/m/K]
276.51 K	0.1719
287.55 K	0.1677
297.25 K	0.1645
307.16 K	0.1617

O [water]
Details	thermal conductivity [W/m/K]
299.55 K	0.613
309.83 K	0.6313
319.56 K	0.6399
332.53 K	0.6555
339.33 K	0.657
349.41 K	0.6723

CCOC(C)=O [ethyl acetate]
Details	thermal conductivity [W/m/K]
249.13 K	0.1618
253.89 K	0.1602
260.17 K	0.1574
268.04 K	0.154
274.35 K	0.152
281.34 K	0.1491
285.31 K	0.1472
290.42 K	0.1451
295.44 K	0.1429
298.52 K	0.1414
303.53 K	0.1396
308.44 K	0.1378
313.45 K	0.1361
318.4 K	0.1346
323.25 K	0.1324
328.39 K	0.1308
333.37 K	0.1288
338.34 K	0.1273
343.27 K	0.1257
345.43 K	0.1245
348.46 K	0.1239

CCCCC(=O)OCC [ethyl pentanoate]
Details	thermal conductivity [W/m/K]
249.21 K	0.1501
263.9 K	0.1458
273.5 K	0.1433
283.8 K	0.1396
288.74 K	0.1389
289.42 K	0.1377
293.69 K	0.1369
298.79 K	0.1357
303.69 K	0.1344
308.61 K	0.1328
313.74 K	0.1314
318.49 K	0.1301
323.74 K	0.1282
328.62 K	0.1268
333.51 K	0.1256
338.47 K	0.1241
343.55 K	0.1228
348.55 K	0.1216
353.49 K	0.1201
358.46 K	0.1184
363.57 K	0.1177

CCCC(=O)OCC [ethyl butanoate]
Details	thermal conductivity [W/m/K]
268.57 K	0.1471
273.61 K	0.1446
278.63 K	0.1423
283.58 K	0.1408
288.65 K	0.1385
293.58 K	0.1374
298.53 K	0.1357
303.56 K	0.1339
308.67 K	0.132
313.49 K	0.1311
318.61 K	0.1293
323.42 K	0.1282
328.48 K	0.1264
333.46 K	0.1249
338.5 K	0.1234
343.51 K	0.1214
348.54 K	0.12
353.36 K	0.1192
358.57 K	0.1173
363.52 K	0.1163

CCOC(=O)CC [ethyl propanoate]
Details	thermal conductivity [W/m/K]
263.55 K	0.1547
268.41 K	0.1531
270.94 K	0.152
278.51 K	0.1474
283.51 K	0.1447
288.56 K	0.143
293.54 K	0.1408
296.36 K	0.1404
301.4 K	0.1384
306.51 K	0.1365
311.34 K	0.1348
316.45 K	0.1332
321.47 K	0.1314
326.44 K	0.13
331.53 K	0.128
336.4 K	0.1264
341.36 K	0.125
346.42 K	0.1231
351.35 K	0.1219
356.28 K	0.1208

Source: the NIST ThermoML archive (doi:10.1016/j.jct.2019.06.014)
